From the supplement of paper PMC10307832

Legend:
Experiment in all cases: relative viability (nuclei count vs DMSO), 5 days (fraction); higher = more cells survive
[1] = compound: Cc1ccc2nc(NCCN)c3ncc(C)n3c2c1 + CC1(C)CCC(c2ccc(Cl)cc2)=C(CN2CCN(c3ccc(C(=O)NS(=O)(=O)c4ccc(N[C@H](CCN5CCOCC5)CSc5ccccc5)c(S(=O)(=O)C(F)(F)F)c4)cc3)CC2)C1 [Navitoclax] (partner 0.5 µM)
Procedure, shortened: (§1)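 The day after seeding in 1536-well plates, lung cancer cell lines were treated by pin tool with a single drug, or with a fixed anchor-drug dose together with five library-drug doses (not always all listed) in √10 steps. After 5 days, a combined fix-and-stain solution (final 0.05% Triton X-100, 1% formaldehyde, 1 ug/ml Hoechst) was added. Nuclei counted on 4× images gave relative viability as treated counts over vehicle counts, reported as the median of duplicate plates.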

[2] = compound: O=C(/C=C/c1ccccc1)NC(NC(=S)Nc1cccc2cccnc12)C(Cl)(Cl)Cl [Salubrinal]
Procedure, shortened: (§2)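 Hoechst staining, done together with fixation and permeabilisation, marked nuclei for 4× imaging and MetaXpress counting. This followed 5 days without medium change after lung cancer cell lines, kept overnight at 37 °C in 1536-well plates, were pinned with five library-drug doses (not always all listed) spaced by √10 on vehicle-anchored plates. Viability is the ratio of treated-well to vehicle-well nuclei, expressed as a median across plates. Plates passed only at control CV below 25% with at least one doubling.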

[3] = compound: Cc1ccc2nc(NCCN)c3ncc(C)n3c2c1
Procedure, shortened: as §2

[4] = compound: O=C(/C=C/c1ccccc1)NC(NC(=S)Nc1cccc2cccnc12)C(Cl)(Cl)Cl [Salubrinal] + N=C(N)NC(=N)NCCc1ccccc1 [Phenformin] (partner 250 µM)
Procedure, shortened: as §1

Row | Cell Line | relative viability ([1]; first compound 0.04 µM) | relative viability ([1]; first compound 0.1265 µM) | relative viability ([1]; first compound 0.4 µM) | relative viability ([1]; first compound 1.265 µM) | relative viability ([1]; first compound 4 µM) | relative viability ([2]; 0.08 µM) | relative viability ([2]; 0.253 µM) | relative viability ([2]; 0.8 µM) | relative viability ([2]; 2.53 µM) | relative viability ([2]; 8 µM) | relative viability ([3]; 0.04 µM) | relative viability ([3]; 0.1265 µM) | relative viability ([3]; 0.4 µM) | relative viability ([3]; 1.265 µM) | relative viability ([3]; 4 µM) | relative viability ([4]; first compound 0.08 µM) | relative viability ([4]; first compound 0.253 µM) | relative viability ([4]; first compound 0.8 µM) | relative viability ([4]; first compound 2.53 µM) | relative viability ([4]; first compound 8 µM)
1 | Calu-6 | 0.829 | 0.799 | 1.05 | 0.807 | 0.321 | 1.17 | 0.925 | 1.01 | 0.981 | 0.936 | 1.03 | 0.986 | 0.974 | 1.02 | 0.854 | – | – | – | – | –
2 | LC-2-ad | 0.404 | 0.431 | 0.491 | 0.526 | 0.508 | 1.01 | 0.921 | 1.13 | 0.99 | 0.93 | 0.991 | 1.01 | 0.911 | 1.03 | 0.965 | 0.65 | 0.609 | 0.744 | 0.621 | 0.596
3 | CAL-12T | 1.26 | 1.14 | 1.25 | 1.33 | 1.17 | 1.09 | 0.956 | 1.08 | 1.03 | 0.888 | 0.984 | 0.981 | 0.976 | 1.02 | 0.91 | 0.627 | 0.485 | 0.613 | 0.578 | 0.438
4 | RERF-LC-KJ | 0.881 | 0.821 | 1.02 | 0.65 | 0.726 | 1.05 | 1.02 | 1.04 | 0.98 | 0.888 | 1.03 | 0.996 | 0.93 | 0.938 | 0.823 | 0.442 | 0.39 | 0.414 | 0.408 | 0.413
5 | NCI-H1650 | 1.3 | 1 | 1.12 | 1.25 | 0.934 | 1.1 | 0.795 | 1.03 | 0.893 | 0.912 | 0.983 | 0.903 | 0.865 | 0.915 | 0.772 | 0.497 | 0.462 | 0.423 | 0.423 | 0.422
6 | ABC-1 | – | – | – | – | – | 0.978 | 0.909 | 0.902 | 1.01 | 0.849 | 0.987 | 1.01 | 0.97 | 1.04 | 0.822 | 0.225 | 0.268 | 0.281 | 0.214 | 0.24
7 | NCI-H1299 | 1.02 | 1.04 | 1.06 | 1.02 | 0.898 | 1.03 | 1.06 | 1 | 0.996 | 0.987 | 1.01 | 0.986 | 0.969 | 0.972 | 0.928 | – | – | – | – | –
8 | EBC-1 | 0.388 | 0.393 | 0.327 | 0.334 | 0.191 | 1.02 | 0.923 | 1.12 | 0.887 | 0.902 | 1.08 | 0.976 | 0.934 | 0.946 | 0.79 | – | – | – | – | –
9 | NCI-H358 | – | – | – | – | – | 1.06 | 1.02 | 1.09 | 0.908 | 0.795 | 0.988 | 1.01 | 0.933 | 1.07 | 0.919 | 0.365 | 0.27 | 0.36 | 0.319 | 0.278
10 | NCI-H650 | – | – | – | – | – | 0.839 | 1.04 | 1.08 | 1.11 | 0.912 | 1.03 | 1.03 | 0.797 | 1.02 | 0.941 | 0.456 | 0.514 | 0.509 | 0.499 | 0.417
11 | NCI-H1648 | – | – | – | – | – | 0.921 | 0.788 | 0.741 | 0.741 | 0.356 | 0.858 | 0.903 | 0.918 | 0.615 | 0.679 | – | – | – | – | –
12 | NCI-H1623 | – | – | – | – | – | 1.08 | 1.18 | 0.949 | 1.1 | 0.997 | 1.01 | 0.838 | 0.961 | 0.887 | 0.937 | 0.522 | 0.564 | 0.61 | 0.578 | 0.551
13 | NCI-H1563 | – | – | – | – | – | 1.01 | 0.942 | 0.943 | 0.919 | 0.911 | 1.02 | 0.909 | 0.947 | 1.03 | 1.01 | 0.71 | 0.617 | 0.647 | 0.635 | 0.692
14 | IA-LM | 0.792 | 0.779 | 0.707 | 0.623 | 0.587 | 0.983 | 0.9 | 1.15 | 0.903 | 0.922 | 0.989 | 0.984 | 0.761 | 0.756 | 0.743 | – | – | – | – | –
15 | NCI-H1703 | 1.3 | 0.881 | 1 | 1.18 | 0.707 | 1.12 | 1.03 | 0.994 | 0.881 | 0.942 | 1.07 | 1.07 | 1.01 | 1.16 | 0.91 | – | – | – | – | –
16 | LCLC-103H | – | – | – | – | – | 1.07 | 0.932 | 1.05 | 1.09 | 0.935 | 1 | 0.974 | 0.918 | 1.08 | 0.955 | 0.388 | 0.282 | 0.318 | 0.38 | 0.308
17 | SW 900 | – | – | – | – | – | 1.06 | 0.718 | 0.941 | 0.933 | 1.04 | 0.878 | 0.897 | 0.584 | 0.779 | 0.941 | 0.555 | – | 0.656 | 0.607 | 0.676
